Reference: patent publication US8993593B2, “N-(4-(6-fluoro-3,4-dihydroisoquinolin-2(1H)-yl)-2,6-dimethylphenyl)-3,3-dimethylbutanamide as potassium channel modulators” (Valeant Pharmaceuticals International, priority 2006, dated 2015)

Key:
[1] = system: mouse maximal electroshock seizure (MES) model; test: Maximal electroshock seizure (MES) test, mouse; format: in vivo; conditions: Mus musculus, po; murine MES model, dosed orally 2 hours prior to testing; read-out: ED50, inhibition of seizures
Excerpt: The MES testing protocol is based on procedures established at the National Institute of Neurological Disorders and Stroke in conjunction with the Anticonvulsant Screening Program (ASP) at the University of Utah (White, H. S., Woodhead, J. H., Wilcox, K. S., Stables, J. P., Kupferberg, H. J and Wolf, H. H. 2002. “General Principles: Discovery and Preclinical Development of Antiepileptic Drugs,” in Antiepileptic Drugs, 5th Edition, R. H. Levy, ed.; R. H. Mattson, B. S. Meldrum, and E. Perucca. Philadelphia, Lippincott Williams & Wilkins.), The goal of the test rapid identification and characterization of the in vivo anticonvulsant activity of any compounds that have been shown active in PC-12 cellular based Rb^+ efflux assay.
Adult male CF-I albino mice (18-25 g, Charles River Laboratories) are exclusively used for in-house MES screen of compounds. Male Sprague-Dawley albino rats (100-125 g, Charles River Laboratories) are also used to test anticonvulsant compounds. Variability of test outcomes is reduced by using animals of the same sex, age, and weight. Animals are permitted to rest and recover from transit for at least 48 hr prior to experimentation. Animals are used for AED testing only once. In some instances, the animals may be anesthetized prior to blood collection and/or whole brain extraction for pharmacokinetic assay. All animals are maintained and handled as outlined in standard animal care guidelines.
In the experiments, testing compounds are prepared as suspensions in 0.5% methyl cellulose (Sigma, Cat #M0512, Viscosity 4000 cP at 20° C.) in water, regardless of solubility. Dry powder compounds are initially ground with a glass rod in a test tube in several drops of methyl cellulose to create a paste and to break down any large chunks. After several minutes of grinding, the volume of the suspension is increased to the final concentration desired. The suspension is then sonicated using a Branson sonicator model 3510 in a water bath at room temperature for 15 minutes. Compound suspensions are further vortexed prior to animal dosing. In some of the cases, DMSO is used to initially solubilize compounds in small volumes and then this solution is added to the 0.5% methyl cellulose solution, in order to create more even and less aggregated compound suspensions. The final concentration of DMSO is 3.75%, an amount with no apparent toxicity or neuroprotective effects in our usual rotarod and MES tests. Methyl cellulose/DMSO compound suspensions are identically prepared for intraperitoneally (i.p.) to mice or orally (p.o.) to rat dosing.
Initially the animals are weighed with an electronic scale and then marked. Data recording sheets are generated for each compound assessment. Mice or rats are dosed with the compound suspension at 0.01 mL/g of body weight. The typical injection volume range is between 180-250 μl for mice. […] Rats are p.o. dosed using a flexible feeding tube, typically starting at a compound dose of 5 mg/kg.
A Rodent Electroconvulsive Stimulator (Model 200, Hamit-Darvin-Freesh, Snow Canyon Clinic, Ivins, Utah) is used for MES testing. A 60-Hz alternating current (50 mA for mice; 150 mA for rats) is delivered for 0.2 seconds through corneal electrodes to the mice. A drop of 0.5% tetracaine (Sigma, Cat. #T-7508) solution is placed on the eye prior to current delivery. The electrodes are subsequently placed gently onto the eyes of the animal and the electrical shock is initiated by triggering through a foot-pedal activator. The animals are restrained by hand and gently released as the shock is delivered and the seizure commences. Animals are monitored for hind limb tonic extension as the end point for this test. Current delivery is recorded as a measure of overall seizure-induction potential. Electrical current delivery can vary from approximately 30-55 mA (mice) or 90-160 mA (rats) depending on impedance in the animal and quality of the current delivery (ie. correct placement of the electrodes on the cornea). […]

[2] = Rotarod test (motor impairment, acute toxicity); conditions: CF-1, in vivo, oral; behavioral rotarod model, mouse
Experimental: Prior to MES testing, compound dosed mice are scrutinized for abnormal neurologic status as defined by motor impairment on a slowly turning (6 rpm) rotarod apparatus (Model 755, Series 8, IITC Life Sciences, Woodland Hills, Calif.). […] These measurements are done at the same time points as the MES assay. Untreated normal mice are able to maintain balance on the rotarod for at least one minute without falling. Median toxicity of a compound (TD50, the dose of a drug that results in motor impairment in 50% of animals) is determined.

KCNQ2/3 = KCNQ2/3 (Homo sapiens, UniProt O43525+O43526); test: Two-electrode voltage-clamp in Xenopus laevis oocytes, KCNQ2/3; format: cell-based
Experimental: Female Xenopus laevis extracted ovaries were purchased from eNASCO (LM00935MX, eNASCO Fort Atkinson, Wis.). […] Approximately 50 nl cRNA (about 50 ng) was injected for KCNQ1, KCNQ4, and KCNQ5 using a Nanoject microinjector (Drummond, Broomall, Pa., USA). For co-expression of KCNQ2 and KCNQ3 and of KCNQ1 and KCNE1, cRNA's were mixed in equal molar ratios before injection of approximately 50 nl. […] Oocytes were kept in Culture Barth solution at 19° C. which was changed daily and currents were recorded after 3 to 5 days.
KCNQ channel currents expressed in Xenopus laevis oocytes were recorded using a two-electrode voltage-clamp. […] The oocytes were placed in custom built perfusion chambers connected to a continuous flow system and impaled with a current electrode and a voltage-clamp electrode pulled from borosilicate glass on a Flaming/Brown Micropipette Puller (Sutter Instruments Co, Novato, Calif., USA).
All compounds were dissolved in DMSO to obtain concentrated stock solutions. On the day of electrophysiological experiments the stock solutions were thawed and diluted in recording solution to their final concentrations. The final DMSO concentration never exceeded 0.1%. Compound delivery was performed using a custom built multi-barrel apparatus connected to the flow system.
Data were acquired by means of an Axograph X software (Axograph Scientific, Sydney, AU) and analyzed using Graph Pad Prism (GraphPad Software Inc., CA, USA). […]
After steady channel current was recorded in the presence of Retigabine at its EC75, recorded oocyte was washed with the recording solution until its steady current returned to its normal level without the presence of any drugs. Then the channel steady current was recorded in the presence of the test compound at its EC75. The percent efficacy was then expressed as: % efficacy=(C2/C 1)×100 where C2 is the recorded steady current in the presence of follow-on compound at its EC75 and C1 is the recorded steady current in the presence of Retigabine at its EC75.

hERG = hERG (Homo sapiens, UniProt Q12809); test: cell-based
hERG, sequence (Q12809 whole entry): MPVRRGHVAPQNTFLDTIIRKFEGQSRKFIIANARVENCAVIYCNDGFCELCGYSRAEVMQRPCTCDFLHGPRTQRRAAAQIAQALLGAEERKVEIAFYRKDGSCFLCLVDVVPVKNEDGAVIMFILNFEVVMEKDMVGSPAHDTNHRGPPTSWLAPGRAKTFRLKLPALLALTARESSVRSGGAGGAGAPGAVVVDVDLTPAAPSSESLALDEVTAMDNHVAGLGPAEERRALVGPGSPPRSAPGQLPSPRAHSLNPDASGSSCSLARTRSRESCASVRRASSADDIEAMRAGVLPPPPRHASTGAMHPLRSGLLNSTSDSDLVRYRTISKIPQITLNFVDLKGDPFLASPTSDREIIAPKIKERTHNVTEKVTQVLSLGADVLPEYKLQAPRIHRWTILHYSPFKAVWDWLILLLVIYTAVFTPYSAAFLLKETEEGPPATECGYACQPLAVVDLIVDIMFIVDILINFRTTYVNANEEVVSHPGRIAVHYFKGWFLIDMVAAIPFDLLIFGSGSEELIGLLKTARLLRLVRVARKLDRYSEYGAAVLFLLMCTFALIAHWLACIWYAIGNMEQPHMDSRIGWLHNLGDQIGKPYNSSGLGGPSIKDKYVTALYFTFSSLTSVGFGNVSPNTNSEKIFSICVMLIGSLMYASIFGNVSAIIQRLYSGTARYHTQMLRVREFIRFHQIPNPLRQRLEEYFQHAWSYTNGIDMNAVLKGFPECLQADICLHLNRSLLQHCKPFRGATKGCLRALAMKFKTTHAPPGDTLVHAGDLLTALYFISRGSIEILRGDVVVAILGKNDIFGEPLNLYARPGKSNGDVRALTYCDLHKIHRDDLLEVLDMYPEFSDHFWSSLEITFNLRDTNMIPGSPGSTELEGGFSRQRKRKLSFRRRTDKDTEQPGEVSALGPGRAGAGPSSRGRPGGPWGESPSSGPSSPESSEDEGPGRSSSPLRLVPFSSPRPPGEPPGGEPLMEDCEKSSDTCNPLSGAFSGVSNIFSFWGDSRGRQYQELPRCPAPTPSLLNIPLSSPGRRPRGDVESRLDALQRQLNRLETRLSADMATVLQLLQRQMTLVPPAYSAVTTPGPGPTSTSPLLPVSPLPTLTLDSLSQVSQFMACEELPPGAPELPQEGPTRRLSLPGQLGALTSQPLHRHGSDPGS

Cc1cc(N2CCc3cc(F)ccc3C2)cc(C)c1NC(=O)CC(C)(C)C [compound A, N-[4-(6-fluoro-3,4-dihydro-1H-isoquinolin-2-yl)-2,6-dimethylphenyl]-3,3-dimethyl butanamide]
ED50 [1]: 2.2 mg/kg
TD50 at 2 h [2]: 12.6 mg/kg
EC50 (KCNQ2/3): 350 nM
KCNQ2/3 Efficacy Relative to Retigabine (%) (KCNQ2/3; oocyte expression, at EC75): 143%
EC50 (hERG): > 30 µM
